Data on 14 molecules can be found in patent publication US8273768B2, “Iso CA-4 and analogues thereof as potent cytotoxic agents inhibiting tubuline polymerization” (Centre National de la Recherche Scientifique (CNRS), priority 2007, dated 2012).

One data set has as its system HCT116. Put plainly: Study of cytotoxicity (CellTiter-Blue, 72 hours). It is filed as cell-based. The conditions noted are these: Homo sapiens, HCT-116; 72 hours of incubation; read-out: IC50 for different cell lines: HCT116. The procedure:
(§1) The biological activity of the compounds of the invention was studied in vitro on 7 human cancer cell lines with different tissue origins (HCT116: colorectal carcinoma; K562: chronic myeloid leukemia; B16-F10: melanoma; U87: glioblastoma; A549: lung cancer and MDA-MB 231 and MDA-MB 435: breast cancer). The cells selected for the study were incubated at 37° C. in the presence of one of the compounds added into the culture medium at different concentrations. The whole of the conducted experiments allowed determination of the toxicity level of the tested compound, its effect on the course of the cell cycle as well as its capacity of inducing cell death by apoptosis.
(§2) The cancer cell lines originate from the American Type Culture Collection (Rockville, Md., USA) and were grown according to the recommendations of the supplier.
(§3) The cells A549, U87, MDA-MB231, MDA-MB435 and B16F10 were grown in a culture medium “Dulbecco minimal essential medium” (DMEM) containing 4.5 g/L of glucose and supplemented with 10% fetal calf serum and 1% glutamine. The K562 and HCT116 were grown in an RPMI 1640 medium containing 10% fetal calf serum and 1% glutamine. All the cell lines were maintained in the culture at 37° C. in a humid atmosphere containing 5% of CO2. Cell viability was evaluated by using the reagent “CellTiter-Blue™” (Promega, Wis., USA) while observing the instructions of the manufacturer. The cells were sown in 96-well culture plates with 5000 cells per well in 50 μL of culture medium. After 24 hours of culture, the compounds of general formula (I) dissolved in DMSO were individually added into each of the wells in an amount of 50 μl per well. All the compounds were tested in triplicate for each defined concentration and each experiment was repeated three times. After 72 hours of incubation, 20 μL of resazurin were added in each well. After 2 hours of incubation, the emitted fluorescence was measured at 590 nm after excitation at 560 nm by means of a fluorescence reader of the Victor type (Perkin-Elmer, USA).
(§4) The concentration of each of the compounds which induces the death of 50% of the cells (IC50) was determined after 72 hours of incubation. Certain compounds according to the invention have an IC50 of the order of one nanomolar concentration, therefore equivalent to CA-4 taken as a reference.

A further data set deals with MDA-MB 231. Put plainly: Study of cytotoxicity (CellTiter-Blue, 72 hours). As to conditions: Homo sapiens, read-out: IC50 for different cell lines: M231. It is filed as cell-based. The procedure: as §1, §2, §3, §4
A further data set concerns U87. Put plainly: Study of cytotoxicity (CellTiter-Blue, 72 hours). It is filed as cell-based. The conditions noted are these: Homo sapiens, U-87 MG, read-out: IC50 for different cell lines: U87. On the procedure: as §1, §2, §3, §4
The test system of the next data set is A549. Put plainly: Study of cytotoxicity (CellTiter-Blue, 72 hours). The conditions noted are these: Homo sapiens, read-out: IC50 for different cell lines: A549. It is filed as cell-based. The procedure: as §1, §2, §3, §4
The subject of the next data set is MDA-MB 435. Put plainly: Study of cytotoxicity (CellTiter-Blue, 72 hours). It is filed as cell-based. The conditions noted are these: Homo sapiens, read-out: IC50 for different cell lines: M435. The procedure:
as §1, §2, §3, §4

In data set [1] the target is T1, purified tubulin from pig brains (Sus scrofa, UniProt P02550+P02554).
T1 construct: from pig brains, where it forms 20-25% of the soluble proteins; from tissue; host or cells: pig brain
Put plainly: Inhibition of polymerization of tubulin (turbidimetry). Format: biochemical. As to conditions: pig brain tubulin, turbidimetry at 350 nm. The procedure:
Tests relating to the inhibition of polymerization of tubulin were carried out on compounds which had the best cytotoxic activities. These tests were carried out on purified tubulin by the Shelanski method (Shelanski, M. C.; Gaskin, F.; Cantor, C. R. Proc. Natl. Acad. Sci. USA, 1973, 70, 765-768) from pig brains, where it forms 20-25% of the soluble proteins. Purification method is based on temperature-dependent assembling-disassembling cycles. Polymerization of tubulin was tracked with turbidimetry according to the Gaskin method (Gaskin, F.; Cantor, C. R.; Shelanski, M. L. J. Bio. Mol. 1974, 89, 737) at a wavelength of 350 nm. The different samples were dissolved in DMSO and incubated for 10 minutes at 37° C. and then for 5 minutes at 0° C.
The CA-4 compound and DMSO were taken as references.
The tests have shown for these compounds an activity inhibiting polymerization of tubulin similar to the one of the reference compound CA-4 (of the order of only one micromolar concentration to a few tens of micromolar concentrations).

Data set [2] concerns human colon tumors LS174T xenografted in Nude mice. Put plainly: Antivascular activity in vivo (MRI, Dotarem entry into tumors). As to conditions: LS174T xenograft, 3 hours after administration, DMXAA 27.5 mg/kg IP, (I-1) 45 mg/kg IV. On the procedure: The antivascular effect of the molecule (I-1) was tested on mice bearing human tumors by comparison with the positive control DMXAA, according to the procedure described by Beauregard et al. (NMR Biomed., 2002, 15:99-105).
Thus, CD-1 Nude female mice were xenografted by subcutaneous injection of human colon tumoral cells (LS174T). The mice bearing tumors were then treated with 0.9% NaCl (carrier, 10 mL/kg), DMXAA (27.5 mg/kg) via an intraperitoneal route (IP) or the molecule (I-1) (45 mg/kg) via an intravenous route (IV). Three hours after administration, the mice were treated with the Dotarem® contrast agent intravenously (IV). The penetration of the contrast agent into the tumors was followed in real time by magnetic resonance imaging (MRI) and is expressed by an enhancement of the intensity of the signal in the tumors. Densitometric analysis of the acquired images allows determination of the maximum enhancement (Rmax) as well as the slope P0 corresponding to the entry rate of Dotarem® into the tumors.

For data set [3], the system named is mouse colon adenocarcinoma 26. The conditions noted are these: cited from earlier work.
The next data set has as its system HCT 15 cells. As to conditions: read-out: IC50, cytotoxic activity; cited from earlier work.
Data set [4] relates to mouse leukemic P-388 cells. The conditions noted are these: cited from earlier work.
The mark [5] stands for this setting: MDA-MB-231, 72 hours of incubation.
Where [6] appears, read: MDA-MB-435, 72 hours of incubation.

Like-named read-outs stand apart in the source and are kept apart here.

T1 sequence (P02554 whole entry): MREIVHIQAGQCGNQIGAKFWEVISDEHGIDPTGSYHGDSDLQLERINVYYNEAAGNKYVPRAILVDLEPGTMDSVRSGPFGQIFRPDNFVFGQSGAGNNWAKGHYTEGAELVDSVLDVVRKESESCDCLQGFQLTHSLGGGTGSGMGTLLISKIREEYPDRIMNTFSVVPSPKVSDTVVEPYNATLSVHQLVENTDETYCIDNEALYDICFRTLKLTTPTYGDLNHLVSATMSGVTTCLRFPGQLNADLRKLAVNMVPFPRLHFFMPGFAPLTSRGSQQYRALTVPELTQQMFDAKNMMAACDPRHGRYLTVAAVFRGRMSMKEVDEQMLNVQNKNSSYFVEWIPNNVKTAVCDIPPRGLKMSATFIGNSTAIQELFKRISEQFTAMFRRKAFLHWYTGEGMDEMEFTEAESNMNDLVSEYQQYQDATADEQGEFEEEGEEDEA
T1 sequence (P02550 whole entry): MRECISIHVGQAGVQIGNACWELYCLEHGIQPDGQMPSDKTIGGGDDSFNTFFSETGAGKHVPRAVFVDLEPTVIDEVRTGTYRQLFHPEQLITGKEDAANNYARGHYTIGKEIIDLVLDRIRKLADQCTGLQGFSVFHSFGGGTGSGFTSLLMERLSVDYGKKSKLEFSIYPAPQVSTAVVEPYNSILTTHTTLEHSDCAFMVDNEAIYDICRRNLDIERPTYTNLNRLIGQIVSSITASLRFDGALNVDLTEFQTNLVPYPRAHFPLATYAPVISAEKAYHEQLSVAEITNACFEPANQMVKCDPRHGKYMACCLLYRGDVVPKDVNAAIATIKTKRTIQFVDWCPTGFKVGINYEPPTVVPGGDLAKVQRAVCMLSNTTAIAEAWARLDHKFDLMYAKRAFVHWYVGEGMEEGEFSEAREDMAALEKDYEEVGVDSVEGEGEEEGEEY

Take `C=C(c1ccc(OC)c(OC(=O)CN(C)C)c1)c1cc(OC)c(OC)c(OC)c1` [(I-36)]: the IC50 in the data set on HCT116 stood at 3 nM.
For `C=C(c1ccc(OC)c(OC(=O)CCCc2ccc(N(CCCl)CCCl)cc2)c1)c1cc(OC)c(OC)c(OC)c1` [(I-8)], the IC50 with MDA-MB 231 (MDA-MB-231, 72 h) was 50 nM; in the data set on HCT116 it was 25 nM; with U87 (72 h) it was 35 nM; in the data set with A549 (A549, 72 h) it was 42 nM; in the data set with MDA-MB 435 (MDA-MB-435, 72 h), 40 nM.
`C=C(c1ccc(OC)cc1)c1cc(OC)c(OC)c(OC)c1` [(I-2)]: the IC50 is 2000 to 3300 nM in [1]; 40 nM in the data set with MDA-MB 231 (setting [5]); 42 nM in the data set on HCT116; 28 nM in the data set on A549 (A549, 72 hours of incubation); 25 nM with MDA-MB 435 (setting [6]).
For `Cc1ccc2c(=O)c3cccc(CC(=O)O)c3oc2c1C` [DMXAA, 5,6-dimethylxanthenone-4-acetic acid, reference compound], in [2], the “Average of P0” value is listed as 0.50±0.40 arbitrary unit and the “Average of Rmax” value was 26.58±21.19 % of the NaCl control.
On to `COc1ccc(/C=C\c2cc(OC)c(OC)c(OC)c2)cc1O` [CA-4, combrestatatin A-4], for which the “Antitumoral activity in vivo” value in data set [3] is “no antitumoral activity is observed”. Further, the IC50 in the data set on HCT 15 cells is 0.9 nM.
For `COc1ccc(C=Cc2cc(OC)c(OC)c(OC)c2)cc1O` (single isomer, unassigned) [E isomer of CA-4], the “Cytotoxic activity, times weaker than the natural Z isomer” value in [4] was “about 60 times”.
For `C=C(c1ccc(OC)c(F)c1)c1cc(OC)c(OC)c(OC)c1` [(I-22)], the values for the IC50 (in [1]; in the data set with HCT116) were 4100 nM and 7 nM, respectively.
Take `C=C(c1ccc(OC)c(OC(C)=O)c1)c1cc(OC)c(OC)c(OC)c1` [(I-6)]: the IC50 in the data set on MDA-MB 231 (setting [5]) was found to be 9 nM; in the data set with HCT116 it was 8 nM; in the data set with U87 (72 hours of incubation), 18 nM; with A549 (A549, 72 hours of incubation), 25 nM; in the data set with MDA-MB 435 (setting [6]), 11 nM.
In the case of `C=C(c1ccc(OC)c(OC(=O)CCC(=O)O)c1)c1cc(OC)c(OC)c(OC)c1` [(I-35)], the IC50 in the data set with HCT116 was determined as 5 nM.
Same read-out and setting: to `C=C(c1ccc(OC)c(OC(=O)[C@@H](COC(C)(C)C)NC(=O)OCC2c3ccccc3-c3ccccc32)c1)c1cc(OC)c(OC)c(OC)c1` [(I-32)] belongs 8 nM.
On to `C=C(c1ccc(OC)c(N)c1)c1cc(OC)c(OC)c(OC)c1` [(I-17)], for which the IC50 in data set [1] came to 1800 nM; in the data set on MDA-MB 231 (setting [5]) it was 6 nM; in the data set on A549 (A549, 72 hours of incubation), 8 nM.
Regarding `C=C(c1ccc(OC)c(OC(=O)Cc2cccc3c(=O)c4ccc(C)c(C)c4oc23)c1)c1cc(OC)c(OC)c(OC)c1` [(I-45)], the IC50 in the data set with HCT116 stood at 7 nM.
Take `C=C(c1ccc(OC)c(OC(=O)c2ccncc2)c1)c1cc(OC)c(OC)c(OC)c1` [(I-34)]: the IC50 in the data set with HCT116 worked out at 3 nM.
For the molecule `C=C(c1ccc(OC)c(OC(=O)C(C)(C)C)c1)c1cc(OC)c(OC)c(OC)c1` [(I-7)], the IC50 in the data set with MDA-MB 231 (setting [5]) came out at 50 nM; in the data set on HCT116, 8 nM; in the data set on U87 (72 hours of incubation), 15 nM; in the data set with A549 (A549, 72 hours of incubation), 28 nM; in the data set with MDA-MB 435 (setting [6]), 25 nM.
